How the values were obtained:
[1] = Solubility in aqueous growth media; format: physicochemical
Method: Stock solutions were prepared for each isomer in the corresponding growth media at a concentration of 5% w/v (1,4-CHDM) or 2.25% w/v (1,1-CHDM). Serial dilutions were prepared with a dilution ratio of 1:1.3333 such that one log range was covered with nine dilutions.
Final results have been summarized below in Table 9.

[2] = tested on: challenge organisms (E. coli, Aeromonas sp., SRB isolate, B. subtilis, P. vulgaris, A. niger, C. albicans); experiment: Paint challenge test, summary over the challenge organisms; format: cell-based; conditions: additive alone at 0.5-5%, all seven challenge organisms
Method: A test of the antimicrobial efficacy of 1,4-CHDM was performed in a paint. Test procedures were generally performed according to those of ASTM D2574-06: Standard Test Method for Resistance of Emulsion Paints in the Container to Attack by Microorganisms.
The paint used for testing was a commercial water-based, interior latex flat wall paint purchased from Wal-Mart. The trade name for the paint was Quik Hide. The color was Off White 26905. A five gallon (18.9 L) container was purchased. The VOC (volatile organic compound) content was listed as <100 g/L (0.8 lbs/gal).
Aliquots of uninoculated paint were distributed in sterile plastic tubes. The volume of paint added was adjusted such that the volume of additives plus the volume of paint would equal 25 mL. […] The percentages shown in Table 2 are weight percentages.
(§1) The concentration of the additives in the paint was adjusted to allow for a final volume of 28 mL per tube after addition of inoculum. All tubes were mixed for 10 minutes on a mechanical shaker set to 75 shakes per minute, and then left stationary at ambient temperature for a minimum of 48 hours.
The bacteria (first five in list), yeast (C. albicans) and fungi (A. niger) in Table 3 were used as challenge organisms for testing the antimicrobial efficacy of the additives contained in the test paint samples. Each organism was isolated from previous naturally contaminated samples of paint, latex, or adhesive. The concentration of each organism (colony-forming unit/gram (cfu/g)) in the test paint samples added as inoculum is also given in Table 3.
(§2) Bacterial cultures were grown at 35° C.±2° C. for a minimum of 96 hours in liquid media. SRB was grown in a thioglycolate broth. All other bacteria and C. albicans were grown in a Trypticase Soy broth with 1% dextrose. C. albicans cultures were grown at 22° C.±2° C. for a minimum of 96 hours. A. niger was grown on the Sabouraud Dextrose Agar (SDA) and in the Trypticase Soy broth with 1% dextrose at 22° C. for 7 to 14 days or until full sporulation (in the case of the agar culture) was achieved. Spores from the plate culture of A. niger were dislodged by rubbing the growth gently with a sterile inoculating loop or removing it with a sterile glass impinger. The spores were added into the broth culture, and then the mixture was filtered through sterile nonabsorbent cotton and adjusted to a spore level of 1.0×10^8 using a hemocytometer.
Challenge organisms were initially acclimated to the paint without additives by adding 10% by volume of individual broth culture to the paint to yield final concentrations of 10^6-10^7 cfu/mL for each bacterial culture to produce paint stock cultures. The A. niger and C. albicans cultures (or suspension) were first poured through nonabsorbent sterile gauze to remove aggregates, then centrifuged. […]

[3] = tested on: challenge organisms (SRB isolate, B. subtilis, A. niger, C. albicans, P. aeruginosa/C. albicans); experiment: Latex dispersion challenge test, summary over the challenge organisms; format: cell-based; conditions: acrylic latex dispersion, additive alone; challenge organisms other than SRB
Method: A test of the antimicrobial efficacy of 1,4-CHDM was performed in a latex dispersion. Test procedures were generally conducted according to those of ASTM D2574-06: Standard Test Method for Resistance of Emulsion Latexes in the Container to Attack by Microorganisms.
An antimicrobial agent-free, acrylic latex dispersion with pH of 7.2, viscosity of 200 cps, and solids content of 49.8% was used as the substrate for microbial challenge testing.
Aliquots of the latex dispersion were distributed in sterile plastic tubes. The volume of latex added was adjusted such that the volume of additives plus the volume of latex would equal 25 mL to produce latex test samples.
as §1, with “additives” for “additives in the paint”, “the latex stock cultures discussed in Example 1.” for “inoculum.”
The bacteria (sulfate-reducing bacteria isolate, Bacillus subtilis, and Pseudomonas aeruginosa), yeast (Candida albicans), and fungi (Aspergillus niger) in Table 6 were used as challenge organisms for testing the antimicrobial efficacy of the test latex samples. Each organism was isolated from previous naturally contaminated samples of paint, latex, or adhesive.
as §2, with “Agar” for “Agar (SDA)”
Challenge organisms were initially acclimated to the latex without antimicrobial additives by adding 10% by volume of individual broth culture to latex to yield final concentrations of 10^6-10^7 cfu/mL for each bacterial culture to produce latex stock cultures. The A. niger and C. albicans cultures (or suspension) were first poured through nonabsorbent sterile gauze to remove aggregates then centrifuged. The solids were re-suspended to the desired concentration in latex by estimating the concentration using a hemocytometer. The P. aeruginosa and C. albicans isolates were originally found as a mixed culture in a contaminated product. A mixed latex stock culture containing P. aeruginosa and C. albicans was prepared by adding a portion of the contaminated product to the latex without antimicrobial additives. The latex stock culture samples were incubated at 35° C.±2° C. for bacteria and at 22° C.±2° C. for A. niger and C. albicans. To determine challenge organism concentration, samples of the latex stock cultures were dilution-plated, or for SRB, evaluated using the BACTI-BOTTLE method, as described below.
To the latex test samples, 3 mL of each latex stock culture (diluted as necessary) was added to produce a theoretical 1.0×10^5 to 1.0×10^6 cfu/mL total concentration to yield inoculated latex samples. […]

solubility [1] | SMILES | killing of challenge organisms in paint [2] | efficacy against challenge organisms in latex [3]
2.25 % (w/v) | OCC1(CO)CCCCC1 [1,1-CHDM, 1,1-cyclohexanedimethanol] | – | –
– | OCC1CCCC(CO)C1 (stereo not shown) [1,3-CHDM] | little benefit and no observable dose response | –
– | OCC1CCC(CO)CC1 (stereo not shown) [1,4-CHDM, 1,4-cyclohexanedimethanol] | significant or complete killing of each challenge organism | significant or complete killing of each challenge organism except SRB
– | O=c1[nH]sc2ccccc12 [BIT, benzisothiazolinone] | – | highly efficacious
– | CCCCNC(=O)OCC#CI [IPBC, 3-iodo-2-propanyl-n-butylcarbamate] | – | not found to be efficacious
– | Cn1sccc1=O [MIT, methylisothiazolinone] | – | highly efficacious
– | CC(O)CO (stereo not shown) [PG, propylene glycol] | little benefit and no observable dose response | some ability to inhibit and kill the challenge organisms
– | CC1(C)C(O)C(C)(C)C1O (stereo not shown) [TMCD, 2,2,4,4-tetramethyl-1,3-cyclobutanediol] | killed all challenge organisms at the highest level tested | –

From US8106111B2, “Antimicrobial effect of cycloaliphatic diol antimicrobial agents in coating compositions” (Eastman Chemical Company, priority 2009, dated 2012)
